Test results published in patent US20250289813A1, “CDK INHIBITORS, PHARMACEUTICAL COMPOSITIONS, AND THERAPEUTIC APPLICATIONS” (ONQUALITY PHARMACEUTICALS CHINA LTD., priority 2022, published 2025).

How the values were obtained:
CDK4/cyclin D1 = CDK4/cyclin D1 (Homo sapiens (Human), UniProt P11802); experiment: CDK4 Caliper Mobility Shift assay; format: biochemical
In short: (§1)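 Caliper mobility-shift kinase assay with FAM-labeled peptide substrate. CDK4/cyclin D1 (15 nM) ran in 20 mM HEPES pH 7.5, 0.01% Triton X-100 at […] ATP; CDK6/cyclin D1 (7.5 nM) in 50 mM HEPES pH 7.5, 0.0015% BRIJ-35 at […] ATP. Compound was pre-incubated 10 min, reactions ran at 28 °C, and IC50 came from percent conversion inhibition.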

CDK6/cyclin D1 = CDK6/cyclin D1 (Homo sapiens (Human), UniProt Q00534); experiment: CDK6 Caliper Mobility Shift assay; format: biochemical
Sequence of CDK6/cyclin D1 (Q00534 whole entry): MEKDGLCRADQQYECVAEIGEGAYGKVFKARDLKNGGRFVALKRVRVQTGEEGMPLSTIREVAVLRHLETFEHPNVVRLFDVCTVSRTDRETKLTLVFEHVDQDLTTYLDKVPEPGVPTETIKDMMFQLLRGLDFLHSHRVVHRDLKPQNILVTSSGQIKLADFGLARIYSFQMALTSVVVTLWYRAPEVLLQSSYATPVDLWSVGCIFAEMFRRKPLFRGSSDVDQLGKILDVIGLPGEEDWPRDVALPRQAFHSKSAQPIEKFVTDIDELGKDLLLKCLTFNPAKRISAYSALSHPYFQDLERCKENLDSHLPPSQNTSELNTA
Sequence of CDK6/cyclin D1 (P24385 whole entry partner): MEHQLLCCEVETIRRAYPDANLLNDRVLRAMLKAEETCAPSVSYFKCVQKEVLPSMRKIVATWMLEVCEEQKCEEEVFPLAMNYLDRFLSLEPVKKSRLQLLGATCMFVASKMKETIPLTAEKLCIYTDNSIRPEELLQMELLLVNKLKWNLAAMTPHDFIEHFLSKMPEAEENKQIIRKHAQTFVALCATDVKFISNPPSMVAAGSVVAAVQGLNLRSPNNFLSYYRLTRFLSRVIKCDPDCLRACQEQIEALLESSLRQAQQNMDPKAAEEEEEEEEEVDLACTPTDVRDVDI
In short: as §1

[1] = tested on: MCF-7 human breast cancer cells; experiment: CELLTITER-GLO luminescent cell viability assay; format: cell-based; details: MCF7, 192 h, MCF-7 cells, 8 days, read-out: EC50 (Effect on Cell Viability)
In short: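 MCF-7 cells grown in EMEM with 10% FBS and insulin, seeded at 3,000 cells/well and left to adhere overnight. Compound exposure lasted 8 days at 37 °C; viability was read by CellTiter-Glo luminescence.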

[2] = tested on: COLO205 human colon cancer cells; experiment: CASPASE-GLO 3/7 apoptosis assay (protection against chemotherapy drug induced cytotoxicity); format: cell-based
Experimental: The CASPASE-GLO 3/7 apoptosis assay was used to evaluate the protective effect of a compound on the cytotoxicity induced by a chemotherapy drug. The apoptosis assay was carried out using COLO205 human colon cancer cells. The cells were grown at 37° C. in a 5% CO2 humidified incubator in PRIM1640 supplemented with 10% FBS and 0.01 mg/mL bovine insulin. The cells were seeded at 4,000 cells/well in a 96-well plate. After incubated overnight, the cells were pretreated with a compound at predetermined concentrations or a vehicle for 16 h, followed by addition of a chemotherapy drug. After incubated for another 48 h, the CASPASE-GLO 3/7 reagent (100 μL/well) was added. The cells were mixed on an orbital shaker for 10 min and incubated at room temperature for 2 h. The 96-well plate was read with an ENVISION reader.

BALB/c mice [3] = experiment: 5-FU-induced diarrhea mouse model; format: in vivo; details: 8 h before and 4 h after 5-FU (175 mg/kg), day 7
Experimental: A compound was evaluated in a 5-FU-induced diarrhea mouse model for its protective effect on the cytotoxicity induced by the chemotherapy drug 5-FU. On day 0, BALB/c mice (20-25 g, 7-8 weeks of age) were randomly divided into 3 groups (vehicle, 5-FU, and compound treatment) with 10 mice in each group. In the vehicle group, the mice were administered orally with the same medium in the same amount as used in the treatment group for the compound and then injected with the same medium in the same amount as used in the 5-FU group. In the 5-FU group, the mice were administered orally with the same medium in the same amount as used in the treatment group for the compound and then injected with 5-FU (175 mg/kg). In the treatment group, the mice were administrated orally with the compound and then injected with 5-FU (175 mg/kg). The compound was formulated with a 0.5% CMC solution.
(§2) On day 7, the diarrhea grade of each mouse was determined according to the method described in Kurita et al., Cancer Chemother. Pharmacol. 2000, 46, 211-20, the disclosure of which is incorporated herein by reference in its entirety. Diarrhea remission rates were calculated using the formula of Diarrhea remission rate (%)=(diarrhea grade in 5-FU group—diarrhea grade in treatment group)/diarrhea grade in 5-FU group×100%.

BALB/c mice [4] = experiment: Irinotecan-induced diarrhea/constipation mouse model; format: in vivo; details: Day 7
Experimental: A compound was evaluated in an irinotecan-induced diarrhea/constipation mouse model for its protective effect on the cytotoxicity induced by a chemotherapy drug. On day 0, BALB/c mice (20-25 g, 7-8 weeks of age) were randomly divided into 3 groups (vehicle, irinotecan, and compound treatment) with 10 mice in each group. In the vehicle group, the mice were administered orally with the same medium in the same amount as used in the treatment group for the compound and then injected with the same medium in the same amount as used in the irinotecan group. In the irinotecan group, the mice were administered orally with the same medium in the same amount as used in the treatment group for the compound and then injected with irinotecan (240 mg/kg). In the treatment group, the mice were administrated orally with the compound and then injected with irinotecan (240 mg/kg). The compound was formulated with a 0.5% CMC solution. […]
as §2, with “On Day” for “On day”, “entirety. The diarrhea” for “entirety. Diarrhea”, “[…]−diarrhea” for “5-FU group—diarrhea”

Sequence of CDK4/cyclin D1 (P11802 whole entry): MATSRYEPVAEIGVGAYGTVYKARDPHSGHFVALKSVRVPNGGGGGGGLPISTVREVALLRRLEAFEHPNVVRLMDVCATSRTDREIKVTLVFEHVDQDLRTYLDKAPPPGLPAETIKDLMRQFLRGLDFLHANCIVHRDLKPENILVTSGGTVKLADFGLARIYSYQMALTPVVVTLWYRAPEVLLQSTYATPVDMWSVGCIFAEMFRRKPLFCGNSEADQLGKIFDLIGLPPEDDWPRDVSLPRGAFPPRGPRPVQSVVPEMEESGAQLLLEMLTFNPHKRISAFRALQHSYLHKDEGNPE
Sequence of CDK4/cyclin D1 (P24385 whole entry partner): as the sequence (P24385 whole entry partner) above

IC50 (CDK4/cyclin D1) [nM] | IC50 (CDK6/cyclin D1) [nM] | EC50 [1] [nM] | Compound | RPR (relative protection rate) ([2]; compound 5 μM, Irinotecan (20 μM)) [%] | RPR (relative protection rate) ([2]; compound 50 μM, Irinotecan (20 μM)) [%] | RPR (relative protection rate) ([2]; compound 100 μM, Irinotecan (20 μM)) [%] | Remission Rate (diarrhea remission rate) (BALB/c mice [3]; 10 mg/kg oral) [%] | Remission Rate (diarrhea remission rate) (BALB/c mice [4]; 10 mg/kg oral, 4 h before and 8 h after irinotecan (240 mg/kg)) [%] | RPR (relative protection rate) ([2]; compound 0.5 μM, 5-Fu (10 μM)) [%] | RPR (relative protection rate) ([2]; compound 25 μM, 5-Fu (10 μM)) [%] | Remission Rate (diarrhea remission rate) (BALB/c mice [3]; 50 mg/kg oral) [%] | Remission Rate (diarrhea remission rate) (BALB/c mice [3]; 100 mg/kg oral) [%] | Remission Rate (diarrhea remission rate) (BALB/c mice [4]; 5 mg/kg oral, 6 h before and 6 h after irinotecan (240 mg/kg)) [%] | Remission Rate (diarrhea remission rate) (BALB/c mice [4]; 25 mg/kg oral, 6 h before and 6 h after irinotecan (240 mg/kg)) [%]
≤ 200 | ≤ 200 | ≤ 1000 | CC(=O)c1c(C)c2cnc(Nc3ccc(N4CCN(S(=O)(=O)OCOC(=O)C(C)(C)C)CC4)cn3)nc2n(C2CCCC2)c1=O [Compound B1, (((4-(6-((6-acetyl-8-cyclopentyl-5-methyl-7-oxo-7,8-dihydropyrido[2,3-d]-pyrimidin-2-yl)amino)pyridin-3-yl)piperazin-1-yl)sulfonyl)oxy)methyl pivalate] | 90 | 65 | 32 | 38 | 60 | – | – | – | – | – | –
200 to 500 | ≤ 200 | > 10000 | CC(=O)c1c(C)c2cnc(Nc3ccc(N4CCN(S(=O)(=O)NC(=O)OC5CCOCC5)CC4)cn3)nc2n(C2CCCC2)c1=O [Compound A22, Tetrahydro-2H-pyran-4-yl ((4-(6-((6-acetyl-8-cyclopentyl-5-methyl-7-oxo-7,8-dihydropyrido[2,3-d]pyrimidin-2-yl)amino)pyridin-3-yl)piperazin-1-yl)sulfonyl)carbamate] | – | – | – | – | – | 26 | 64 | 55 | 36 | 30 | 50
